Data on six compounds can be found in patent US20060111305A1, “Metabolites of certain [1,4]diazepino[6,7,1-ij]quinoline derivatives and methods of preparation and use thereof” (Wyeth, priority 2004, published 2006).

Data set [1] in a line: Metabolite profiles of DCDQ in human plasma and urine by LC/MS (Table 33). The format is in vivo, healthy human subjects. Also noted: key to Matrix (in which DCDQ / metabolite was characterized by LC/MS): P = plasma; U = urine. To be noted: for Matrix (in which DCDQ / metabolite was characterized by LC/MS): human plasma and urine, healthy subjects receiving DCDQ. The procedure:
Drug administration and specimen collection were performed in a randomized, double-blinded, placebo-controlled, ascending single dose study of the safety, tolerability, pharmacokinetics, and pharmacodynamics of DCDQ administered orally to healthy subjects and subjects with schizophrenia and schizoaffective disorder. The specimens were stored at approximately −70° C. until analysis for metabolite profiles and for ratios of carbamoyl glucuronide (M6) to DCDQ.
Two subjects with medium and high exposure to DCDQ in the 25 mg multiple ascending dose study were also analyzed by LC/MS for metabolite profiles. The 8 hr plasma samples collected on day 1 and day 14 from subjects 9 and 41 were processed and analyzed as described below. No internal standard was added to the samples analyzed for metabolite profiles.
LC/MS System 1 was used for analysis of plasma and urine samples for metabolite characterization. The HPLC equipment used with this LC/MS System consisted of an Agilent Model 1100 HPLC system (Agilent Technologies, Palo Alto, Calif.) including an autosampler, binary pump and diode array UV detector. The UV detector was set to monitor 210 to 350 nm. The HPLC mobile phase consisted of 10 mM ammonium acetate, pH 4.5 (A) and methanol (B), and was delivered at 0.2 mL/min. The linear mobile phase gradient (HPLC Gradient 1) is shown below. During LC/MS sample analysis, up to 6 min of the initial flow was diverted away from the mass spectrometer prior to evaluation of metabolites.
The mass spectrometer used for metabolite characterization with LC/MS System 1 was a Finnigan LCQ-Deca ion trap mass spectrometer (Thermo Electron, San Jose, Calif.). This mass spectrometer was equipped with an electrospray ionization (ESI) interface and operated in the positive ionization mode. Settings for the LCQ mass spectrometer are listed below.
LC/MS System 2 was used to provide additional MS/MS data for characterization of DCDQ metabolites in urine. The HPLC equipment used with LC/MS System 2 consisted of a Waters model 2695 HPLC system (Waters Corp., Milford, Mass.). It was equipped with a built-in autosampler and a model 996 diode array UV detector. The UV detector was set to monitor 210-400 nm. The HPLC column, mobile phases, flow rate, diversion of flow away from the mass spectrometer and gradient were as described above for LC/MS System 1. The column temperature was 25° C.
The mass spectrometer used for metabolite characterization with LC/MS System 2 was a Micromass Quattro Micro triple quadrupole mass spectrometer (Waters Corp.). This mass spectrometer was equipped with an electrospray interface and operated in the positive ionization mode. Settings for this mass spectrometer are listed below.

Data set [2] can be described thus: Metabolites of DCDQ generated by liver microsomes and hepatocytes, LC/MS characterization (Table 6). To be noted: MM mouse, RM rat, DM dog, HM human liver microsomes; HH human hepatocytes. The format is in vitro ADME. From the text: An Agilent Model 1100 HPLC system (Agilent Technologies, Palo Alto, Calif.) including an autosampler and diode array UV detector was used for LC/MS analysis. The UV detector was set to monitor 200 to 400 nm. For selected LC/MS analysis, radiochromatograms were acquired using a β-Ram model 3 radioactivity flow detector (IN/US Systems Inc., Tampa, Fla.) equipped with a solid scintillant flow cell. Separations were accomplished on a Phenomenex Luna C18(2) column (2×150 mm, 5 μm) under the same conditions as described above.
The mass spectrometer used for metabolite characterization was a Micromass Q-TOF-2 quadrupole time-of-flight hybrid mass spectrometer ([…].). The mass spectrometer was equipped with an electrospray ionization (ESI) interface and operated in the positive ionization mode. Collision energy settings of 5 and 30 eV were used for full MS and MS/MS scans, respectively. Settings for the mass spectrometer are listed below.
Mass spectra were obtained by LC/MS and LC/MS/MS analysis for DCDQ and its metabolites.
(Liver microsomes are vesicles of endoplasmic reticulum, rich in cytochrome P450 enzymes.)

Data set [3] is described as follows: Metabolites of DCDQ identified in dogs by LC/MS analysis (Table 26). In kind it is in vivo, beagle dogs. Particulars: P = plasma, U = urine, B = brain, F = feces. The source says: An Agilent Model 1100 HPLC system (Agilent Technologies, Palo Alto, Calif.) including an autosampler and diode array UV detector was used for LC/MS analysis. The UV detector was set to monitor 200 to 400 nm. For selected LC/MS analysis, radiochromatograms were acquired using a β-Ram model 3 radioactivity flow detector (IN/US Systems Inc., Tampa, Fla.) equipped with a solid scintillant flow cell. LC conditions were the same as the condition B described above.
The mass spectrometer used for metabolite characterization was a Micromass Q-TOF-2 quadrupole time-of-flight hybrid mass spectrometer (Waters). The mass spectrometer was equipped with an electrospray ionization (ESI) interface and operated in the positive ionization mode. Collision energy settings of 5 and 30 eV were used for full MS and MS/MS scans, respectively. Settings for the mass spectrometer are listed below.

As for `c1cc2c3c(c1)[C@H]1CCC[C@H]1CN3CCNC2` [DCDQ, (9aR,12aS)-4,5,6,7,9,9a,10,11,12,12a-decahydro-cyclopenta[c][1,4]diazepine[6,7,1-ij]quinoline, reference compound], the “Matrix (in which DCDQ / metabolite was characterized by LC/MS)” value in data set [1] was “P, U”. In data set [2], the Source entry is “MM, RM, DM, HM, HH”. Besides, the Matrix result in data set [3] was “P, U, F”.

As to `OC1CN2C[C@@H]3CCC[C@@H]3c3cccc(c32)CN1` (stereo partly shown) [Metabolite M1, hydroxy DCDQ], the “Matrix (in which DCDQ / metabolite was characterized by LC/MS)” value in data set [1] is recorded as “P, U”. Further, the Source result in data set [2] is reported as “HM, HH”. Also, the Matrix result in data set [3] is given as “P, U”.

In the case of `OC1[C@@H]2CCC[C@@H]2c2cccc3c2N1CCNC3` (stereo partly shown) [Metabolite M2, hydroxy DCDQ], the Source result in data set [2] is recorded as “MM, RM, DM, HM, HH”. For the same compound, in data set [3], the Matrix entry was “P, U, F”.

In the case of `[O-][N+]12CCN=Cc3cccc(c31)[C@H]1CCC[C@H]1C2` (stereo partly shown) [Metabolite M5, DCDQ imine N-oxide], in data set [1], the “Matrix (in which DCDQ / metabolite was characterized by LC/MS)” value is on record as “P”. In addition, the Source entry in data set [2] is recorded as “DM, HM, HH”.

Consider `O=C(O)[C@H]1O[C@@H](OC(=O)N2CCN3C[C@@H]4CCC[C@@H]4c4cccc(c43)C2)[C@H](O)[C@@H](O)[C@@H]1O` [Metabolite M6, carbamoyl glucuronide of DCDQ], for which the “relative abundance in human plasma” value in data set [1] (all dose groups, single and multiple dose studies) was “predominant drug-related component”. In addition, in data set [1], the “Matrix (in which DCDQ / metabolite was characterized by LC/MS)” value is listed as “P, U”. Moreover, the “relative abundance in human urine” value in data set [1] (in vivo) is on record as “predominant drug-related component”. The Source entry in data set [2] is “DM, HM, HH”. Besides, the Matrix result in data set [3] is recorded as “P, U”.

As to `O=C1CC[C@@H]2c3cccc4c3N(CCNC4)C[C@H]12` [Metabolite M7, 17-keto DCDQ], in data set [3], the Matrix result is on record as “P, U”.
